From patent publication US20250197389A1, “NITROGEN-CONTAINING HETEROCYCLIC COMPOUND” (SHANGHAI SHIJIANG BIOTECHNOLOGY CO., LTD, priority 2022, published 2025)

Tests used:
[1] = system: mPTP-active Daoy cell; test: Inhibitory effect on mPTP-active Daoy cell (Promega CellTiter-Glo, intracellular ATP); format: cell-based, human; conditions: Daoy cell transfected with empty virus vector without PPIF shRNA
[2] = system: mPTP-inactive Daoy cell; test: Inhibitory effect on mPTP-inactive Daoy cell (PPIF shRNA; Promega CellTiter-Glo, intracellular ATP); format: cell-based, human; conditions: Daoy cell transfected with virus vector carrying PPIF shRNA
Excerpt: The activity of mitochondria permeability transition pore (mPTP) was regulated by the PPIF protein. […] PPIF protein activity was restricted by the expression level of PPIF protein in cell.

## COc1ccc2c(c1OCCCCOc1ccccc1)C(C1CCCC1)N1CCc3cc4c(cc3C1=C2)OCO4 (stereo not drawn) [AB35454]
[1]; Homo sapiens, Daoy
  IC50: 2.96 µM
[2]; Homo sapiens, Daoy
  IC50: 1.28 µM

## COc1ccc2c(c1N1CCC(Cl)CC1)CN1CCc3cc4c(cc3C1=C2)OCO4 [AB35550]
[1]; Homo sapiens, Daoy
  IC50: 6.36 µM
[2]; Homo sapiens, Daoy
  IC50: 2.05 µM

## COc1ccc2c(c1OC)C(C)N1CCc3cc4c(cc3C1=C2CCc1ccccc1)OCO4 (stereo not drawn) [AB35498]
[1]; Homo sapiens, Daoy
  IC50: 6.35 µM
[2]; Homo sapiens, Daoy
  IC50: 3.1 µM

## CCCCCC1c2c(ccc3c2OCO3)C=C2c3cc4c(cc3CCN21)OCO4 (stereo not drawn) [AB36433]
[1]; Homo sapiens, Daoy
  IC50: 1.92 µM
[2]; Homo sapiens, Daoy
  IC50: 0.58 µM

## COc1ccc2c(c1OCCCCOc1ccccc1)C(C)N1CCc3cc4c(cc3C1=C2)OCO4 (stereo not drawn) [AB31881]
[1]; Homo sapiens, Daoy
  IC50: 4.34 µM
[2]; Homo sapiens, Daoy
  IC50: 2.12 µM

## [2H]C1c2c(ccc(OC)c2OCCC)C=C2c3cc4c(cc3CCN21)OCO4 (stereo not drawn) [AB36437]
[1]; Homo sapiens, Daoy
  IC50: 1.37 µM
[2]; Homo sapiens, Daoy
  IC50: 0.54 µM

## COc1ccc2c(c1OC)CN1CCc3cc4c(cc3C1=C2Cc1ccc(C(C)C)cc1)OCO4 [AB31870]
[1]; Homo sapiens, Daoy
  IC50: 3.94 µM
[2]; Homo sapiens, Daoy
  IC50: 1.86 µM

## CCCC1=C2c3cc4c(cc3CCN2C(C2CCCC2)c2c1ccc1c2OCO1)OCO4 (stereo not drawn) [AB36432]
[1]; Homo sapiens, Daoy
  IC50: 4.32 µM
[2]; Homo sapiens, Daoy
  IC50: 1.88 µM

## COc1ccc2cc3n(c(=O)c2c1OC)CCc1cc2c(cc1-3)OCO2 [AB36496]
[1]; Homo sapiens, Daoy
  IC50: 86.3 µM
[2]; Homo sapiens, Daoy
  IC50: > 100 µM

## COc1ccc2c(c1OCCCCc1ccccc1)C(C(Cl)(Cl)Cl)N1CCc3cc4c(cc3C1=C2)OCO4 (stereo not drawn) [AB35535]
[1]; Homo sapiens, Daoy
  IC50: 0.59 µM
[2]; Homo sapiens, Daoy
  IC50: 0.18 µM

## [2H]C1c2c(ccc(OC)c2OC)C=C2c3cc4c(cc3CC([2H])([2H])N21)OCO4 (stereo not drawn) [AB36477]
[1]; Homo sapiens, Daoy
  IC50: 2.54 µM
[2]; Homo sapiens, Daoy
  IC50: 1.32 µM

## COc1ccc2c(c1OC)C(C1CCCC1)N1CCc3cc4c(cc3C1=C2CCCCCCCl)OCO4 (stereo not drawn) [AB35500]
[1]; Homo sapiens, Daoy
  IC50: 3.46 µM
[2]; Homo sapiens, Daoy
  IC50: 1.71 µM

## COc1ccc2c(c1OC)C(C(Cl)(Cl)Cl)N1CCc3cc4c(cc3C1=C2CCCCCCBr)OCO4 (stereo not drawn) [AB35501]
[1]; Homo sapiens, Daoy
  IC50: 4.98 µM
[2]; Homo sapiens, Daoy
  IC50: 1.91 µM

## COc1ccc2c(c1N1CCC(NC(=O)OC(C)(C)C)CC1)C(C(Cl)(Cl)Cl)N1CCc3cc4c(cc3C1=C2)OCO4 (stereo not drawn) [AB35465]
[1]; Homo sapiens, Daoy
  IC50: 5.43 µM
[2]; Homo sapiens, Daoy
  IC50: 2.68 µM

## CC1c2c(ccc3c2OCO3)C(CCCc2ccccc2)=C2c3cc4c(cc3CCN21)OCO4 (stereo not drawn) [AB35427]
[1]; Homo sapiens, Daoy
  IC50: 3.27 µM
[2]; Homo sapiens, Daoy
  IC50: 1.49 µM

## COc1ccc2c(c1OC)C(C)N1CCc3cc4c(cc3C1=C2CCCc1ccccc1)OCO4 (stereo not drawn) [AB35493]
[1]; Homo sapiens, Daoy
  IC50: 3.33 µM
[2]; Homo sapiens, Daoy
  IC50: 1.02 µM

## COc1ccc2c(c1OC)C(C1CCC1)N1CCc3cc4c(cc3C1=C2)OCO4 (stereo not drawn) [AB36447]
[1]; Homo sapiens, Daoy
  IC50: 6.73 µM
[2]; Homo sapiens, Daoy
  IC50: 2.65 µM

## COc1ccc2c(c1N1CCN(C)CC1)C(C1CCCC1)N1CCc3cc4c(cc3C1=C2)OCO4 (stereo not drawn) [AB35510]
[1]
  IC50: 0.83 µM
[2]
  IC50: 0.29 µM

## CCCCCCCCC1=C2c3cc4c(cc3CCN2C(C(Cl)(Cl)Cl)c2c1ccc(OC)c2OC)OCO4 (stereo not drawn) [AB35497]
[1]; Homo sapiens, Daoy
  IC50: 3.28 µM
[2]; Homo sapiens, Daoy
  IC50: 1.15 µM

## COc1ccc2c(c1N1CCC(C(F)(F)F)CC1)C(C(Cl)(Cl)Cl)N1CCc3cc4c(cc3C1=C2)OCO4 (stereo not drawn) [AB35514]
[1]; Homo sapiens, Daoy
  IC50: 3.42 µM
[2]; Homo sapiens, Daoy
  IC50: 1.33 µM

## COc1ccc2c(c1Cl)CN1CCc3cc4c(cc3C1=C2)OCO4 [AB36450]
[1]; Homo sapiens, Daoy
  IC50: 5.12 µM
[2]; Homo sapiens, Daoy
  IC50: 2.23 µM

## COc1ccc2c(c1OC)CN1CCc3cc4c(cc3C1=C2Cc1ccc(OC(F)(F)F)cc1)OCO4 [AB31866]
[1]; Homo sapiens, Daoy
  IC50: 6.78 µM
[2]; Homo sapiens, Daoy
  IC50: 3.38 µM

## [2H]C1([2H])c2c(ccc(OC)c2OC)C=C2c3cc4c(cc3CCN21)OCO4 [AB36434]
[1]; Homo sapiens, Daoy
  IC50: 2.42 µM
[2]; Homo sapiens, Daoy
  IC50: 1.13 µM

## COc1ccc2c(c1OC/C=C(\C)CCC=C(C)C)C(C(Cl)(Cl)Cl)N1CCc3cc4c(cc3C1=C2)OCO4 (stereo not drawn) [AB35405]
[1]; Homo sapiens, Daoy
  IC50: 2.68 µM
[2]; Homo sapiens, Daoy
  IC50: 1.21 µM

## COc1ccc2c(c1OC)C(C(Cl)(Cl)Cl)N1CCc3cc4c(cc3C1=C2CCc1ccccc1)OCO4 (stereo not drawn) [AB35444]
[1]; Homo sapiens, Daoy
  IC50: 6.85 µM
[2]; Homo sapiens, Daoy
  IC50: 3.33 µM

## COc1ccc2c(c1N1CCC(C)CC1)C(C(Cl)(Cl)Cl)N1CCc3cc4c(cc3C1=C2)OCO4 (stereo not drawn) [AB35453]
[1]; Homo sapiens, Daoy
  IC50: 1.23 µM
[2]; Homo sapiens, Daoy
  IC50: 0.43 µM

## CCC1=C2c3cc4c(cc3CCN2C(C(Cl)(Cl)Cl)c2c1ccc(OC)c2OC)OCO4 (stereo not drawn) [AB35488]
[1]; Homo sapiens, Daoy
  IC50: 5.27 µM
[2]; Homo sapiens, Daoy
  IC50: 2.02 µM
